Test results published in the NIST ThermoML archive (doi:10.1021/je700486g).
± gives the expanded uncertainty stated by the source.

conditions: Crystal; visual observation

First: O=C(O)c1ccccc1 [benzoic acid]
Second: O=C(O)c1ccccc1O [2-hydroxybenzoic acid]
The Normal melting temperature of the first is lower: 122 ± 1 °C for the first, 159 ± 1 °C for the second.

First: CC(=O)Oc1ccccc1C(=O)O [2-acetoxybenzoic acid]
Second: c1ccc2c(c1)-c1cccc3cccc-2c13 [fluoranthene]
The Normal melting temperature of the first is higher: 135.4 ± 1.1 °C for the first, 108.4 ± 3 °C for the second.
